Results: the RepoRT retention time repository (doi:10.1021/acs.analchem.2c02893)

Assay: RP, Thermo Scientific Acclaim RSLC 120 C18, 100 × 2.1 mm, 2.2 µm, 30 °C, 0.2 mL/min, estimated dead time 1.1 min; A: 90% water + 10% methanol + 0.01% formic acid + 5 mM ammonium formate, pH 3.61; B: methanol + 0.01% formic acid + 5 mM ammonium formate, pH 3.61; gradient (min/%B) 0/1 1/1 2/39 13/99.9 15/99.9 15.1/1 20.1/1
Conditions: stereoisomer not certain

Row | SMILES | LC retention time [min]
1 | Cc1ccsc1C=CC1=NCCCN1C [Morantel] | 4.36
2 | CC(CS)C(=O)N1CCCC1C(=O)O (centres undefined) [Captopril] | 4.59
3 | Cc1c(NC(=O)c2cccnc2)c(=O)n(-c2ccccc2)n1C [Nifenazone] | 4.56
4 | CN(CC=Cc1ccccc1)Cc1cccc2ccccc12 [Naftifine] | 8.52
5 | CNC(=N[N+](=O)[O-])NCc1cnc(Cl)s1 [Clothiandin] | 4.9
6 | CCOC(=O)C(CCc1ccccc1)NC(C)C(=O)N1C(C(=O)O)CC2CCCC21 (centres undefined) [Ramipril] | 8.56
7 | C#CCOS(=O)OC1CCCCC1Oc1ccc(C(C)(C)C)cc1 (centres undefined) [Propargite] | 12.8
8 | COc1ccc(NS(=O)(=O)c2ccc(N)cc2)nn1 [Sulfamethoxypyridazine] | 4.38
9 | CCCCCn1c(C)c(C(=O)c2cccc3ccccc23)c2ccccc21 [JWH-007] | 12.6
10 | NCCCCC(NC(CCc1ccccc1)C(=O)O)C(=O)N1CCCC1C(=O)O (centres undefined) [Lisinopril] | 3.98
11 | CCN(CC)CCCN(c1ccccc1)C1Cc2ccccc2C1 [Aprindine] | 8.85
12 | CC1N=C(c2ccccc2Cl)c2cc([N+](=O)[O-])ccc2NC1=O (centres undefined) [Meclonazepam] | 8.28
13 | CCCCCn1nc(C(=O)NC(C(N)=O)C(C)C)c2ccccc21 (centres undefined) [AB-PINACA] | 10.5
14 | CCCCC(O)(Cn1cncn1)c1ccc(Cl)cc1Cl (centres undefined) [Hexaconazole] | 11.2
15 | CCCCCCCCCCOc1cc2c(=O)c(C(=O)OCC)c[nH]c2cc1OCC [Decoquinate] | 13.4
16 | CCCNC(=O)NS(=O)(=O)c1ccc(Cl)cc1 [Chlorpropamide] | 7.19
17 | CN1CCN(CCCN2c3ccccc3Sc3ccc(S(=O)(=O)N(C)C)cc32)CC1 [Thioproperazine] | 8.15
18 | O=C(OC1CN2CCC1CC2)N1CCc2ccccc2C1c1ccccc1 (centres undefined) [Solifenacin] | 7.95
19 | O=C1Nc2ccc(Cl)cc2C(C#CC2CC2)(C(F)(F)F)O1 (centres undefined) [Efavirenz] | 10.7
20 | CN(C)c1ccc(C(=C2C=CC(=[N+](C)C)C=C2)c2ccccc2)cc1 [Malachite green (MG)] | 8.34
21 | CC(C)N(CCc1c[nH]c2cccc(O)c12)C(C)C [DIPT- 4-OH] | 4.34
22 | Cc1onc(-c2ccccc2)c1C(=O)NC1C(=O)N2C1SC(C)(C)C2C(=O)O (centres undefined) [Oxacillin] | 6.9

Row | SMILES | LC retention time [min]
23 | CCCN(CC)CC1COC2(CCC(C(C)(C)C)CC2)O1 (centres undefined) [Spiroxamine] | 9.32
24 | CN(C(=O)CN(CCO)CC(=O)N(C)C(C)(C)Cc1ccccc1)C(C)(C)Cc1ccccc1 [Oxetacaine] | 10.9
25 | CC1(C)OC(c2ccco2)CN1C(=O)C(Cl)Cl (centres undefined) [Furilazole] | 7.92
26 | O=C(c1cccc2ccccc12)c1cn(CCCCCO)c2ccccc12 [JWH-018-M-N-5-OH-Pentyl] | 10
27 | CN(C)CCCN1c2ccccc2CCc2ccccc21 [Imipramine] | 8.08
28 | OC(Cc1ccccc1Cl)(Cn1cncn1)C1(Cl)CC1 (centres undefined) [Prothioconazole-desethio] | 10.5
29 | CCNc1nc(NC(C)C)[nH]c(=O)n1 [Atrazine-2-hydroxy] | 5.03
30 | CCc1cc2c(s1)-n1cnnc1CN=C2c1ccccc1Cl [Metizolam (Desmethyletizolam)] | 7.93
31 | CC(C)OC(=O)Nc1cccc(Cl)c1 [Chlorpropham] | 9.78
32 | CN(C)CCC=C1c2ccccc2CSc2ccccc21 [Dosulepin] | 7.61
33 | O=C(Oc1cccc2cccnc12)c1cn(CCCCCF)c2ccccc12 [PB-22-5F] | 10.7
34 | O=S(=O)(O)NC1CCCCC1 [Cyclamic acid] | 6.99
35 | CN1Cc2c(N)cccc2C(c2ccccc2)C1 (centres undefined) [Nomifensine] | 5.42
36 | NC(=O)N1c2ccccc2C(O)C(O)c2ccccc21 (centres undefined) [Carbamazepine-10.11-dihydro-10.11 dihydroxy] | 5.79
37 | CCOC(=O)C1(c2ccccc2)CCN(CCC(C#N)(c2ccccc2)c2ccccc2)CC1 [Diphenoxylate] | 10.4
38 | CCOc1ccccc1OC(c1ccccc1)C1CNCCO1 (centres undefined) [Reboxetine] | 7.28
39 | Fc1ccc(C2(Cn3cncn3)OC2c2ccccc2Cl)cc1 (centres undefined) [Epoxiconazole] | 10.3
40 | CNCCCC(C#N)(c1ccc(OC)c(OC)c1)C(C)C (centres undefined) [D617 (met. of verapamil)] | 6.14
41 | OCCN1CCN(CCC=C2c3ccccc3Sc3ccc(C(F)(F)F)cc32)CC1 [Flupentixol] | 10.2
42 | NC1=NCCN1Cc1ccc(Cl)nc1 [Imidacloprid-guanidine] | 11
43 | Cc1ccccc1N1C(=O)c2cc(S(N)(=O)=O)c(Cl)cc2NC1C (centres undefined) [Metolazone] | 6.08
44 | CN(C)CCc1c[nH]c2ccccc12 [DMT (Dimethyltryptamine)] | 3.94

Row | SMILES | LC retention time [min]
45 | CC(C)C(N)C(=O)OCC(CO)OCn1cnc2c(=O)[nH]c(N)nc21 (centres undefined) [Valganciclovir] | 2.71
46 | CCCOc1ccc(S(=O)(=O)N2CCN(CC)CC2)cc1-c1nc(=S)c2c([nH]1)c(CCC)nn2C [Propoxyphenyl Thiohomosidenafil] | 10.5
47 | O=S(=O)(Oc1ccc(Cl)cc1)c1ccccc1 [Fenson] | 10.1
48 | CN(C)C(=O)Nc1ccccc1 [Fenuron] | 5.12
49 | CN(C)CCOc1ccccc1Cc1ccccc1 [Phenyltoloxamine] | 7.29
50 | CNCC(O)c1ccc(O)cc1 (centres undefined) [Synephrine] | 1.6
51 | O=C(O)COc1nc(Cl)c(Cl)cc1Cl [Triclopyr] | 7.85
52 | CCOP(=O)(OCC)Oc1cc(C)nc(C(C)C)n1 [Diazinon-O-analog] | 8.65
53 | COC(=O)c1sccc1S(=O)(=O)NC(=O)Nc1nc(C)nc(OC)n1 [Thifensulfuron-methyl] | 6.24
54 | CC[N+](CC)(CC(=O)Nc1c(C)cccc1C)Cc1ccccc1 [Denatonium] | 12.3
55 | COc1ccc(CC(C)N)cc1OC (centres undefined) [DMA (3-4-)] | 3.94
56 | Nc1nc(N)c2nc(-c3ccccc3)c(N)nc2n1 [Triamterene] | 4.68
57 | COC=C(C(=O)O)c1ccccc1Oc1cc(Oc2ccccc2C#N)ncn1 [Azoxystrobin acid] | 8.18
58 | COc1cc(CCN)c(OC)cc1I [2C-I] | 6.06
59 | C=CCOc1ccccc1OCC(O)CNC(C)C (centres undefined) [Oxprenolol] | 5.66
60 | O=[N+]([O-])c1cncn1CCN1CCOCC1 [Nimorazole] | 4.09
61 | CN(C)C(=O)OC1N=C(c2ccccc2)c2cc(Cl)ccc2N(C)C1=O (centres undefined) [Camazepam] | 10
62 | CN1CCN(C(c2ccccc2)c2ccc(Cl)cc2)CC1 (centres undefined) [Chlorcyclizine] | 8.28
63 | Nc1ccn(C2OC(CO)C(O)C2O)c(=O)n1 (centres undefined) [Cytarabin] | 1.39
64 | CCCCCCC(C)(C)c1ccc(C2CC(O)CCC2CCCO)c(O)c1 (centres undefined) [CP 55-940] | 12
